# PMC7816197 (Journal of Medicinal Chemistry, 2020)
# pIC50: −log10 of the molar value.
# What was measured:
# human NAPE-PLD = human NAPE-PLD (Homo sapiens, UniProt Q6IQ20); test: NAPE-PLD PED6 surrogate substrate activity assay; format: biochemical; details: for fold increase in potency/activity: compared to 2; for fold drop in potency: compared to hit 2; for inhibitory activity in words: PED6 assay, human NAPE-PLD
# HEK293 cells = details: cited from earlier work
# [1] = not suited for in vivo use; cited from earlier work
# Neuro-2a cells = details: cited from earlier work
# [2] = tested on: brains of freely moving mice; details: cited from earlier work
# human NAPE-PLD, sequence (Q6IQ20 whole entry): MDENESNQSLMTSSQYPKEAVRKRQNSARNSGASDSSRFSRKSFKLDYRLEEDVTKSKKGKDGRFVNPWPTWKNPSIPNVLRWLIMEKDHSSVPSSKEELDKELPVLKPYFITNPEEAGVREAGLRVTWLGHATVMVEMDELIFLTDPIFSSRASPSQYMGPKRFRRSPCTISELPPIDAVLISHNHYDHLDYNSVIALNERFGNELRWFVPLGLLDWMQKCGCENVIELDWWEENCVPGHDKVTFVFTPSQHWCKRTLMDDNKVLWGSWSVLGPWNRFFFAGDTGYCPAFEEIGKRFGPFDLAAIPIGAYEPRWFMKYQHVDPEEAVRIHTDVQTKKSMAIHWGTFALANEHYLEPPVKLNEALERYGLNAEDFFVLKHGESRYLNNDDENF
compound,measurement,setting,value
"CN(CCc1ccccc1)c1nc(C(=O)NCC2CC2)cc(N2CCCC(F)(F)C2)n1 [Compound 72, N-(Cyclopropylmethyl)-6-(3,3-difluoropiperidin-1-yl)-2-(methyl(phenethyl)amino)pyrimidine-4-carboxamide]",fold increase in potency/activity,human NAPE-PLD,2 fold
"O=C(NCC1CC1)c1cc(N2CC[C@@H](O)C2)nc(N2CCC[C@H](c3ccccc3)C2)n1 [Compound 107, N-(Cyclopropylmethyl)-6-((R)-3-hydroxypyrrolidin-1-yl)-2-((R)-3-phenylpiperidin-1-yl)pyrimidine-4-carboxamide]",fold-reduced activity,"human NAPE-PLD; (R,R) enantiomer compared to 1",3 fold
"CN(CCc1ccccc1)c1nc(NC(=O)CC2CC2)cc(N2CCOCC2)n1 [Compound 30, 2-Cyclopropyl-N-(2-(methyl(phenethyl)amino)-6-morpholinopyrimidin-4-yl)acetamide]",fold drop in potency,human NAPE-PLD,10 fold
O=c1[nH]c(=O)c2cc(S(=O)(=O)Nc3ccc(-c4ccncc4)cc3)ccc2[nH]1 [ARN19874],pIC50,human NAPE-PLD,4.27
same,NAE levels,HEK293 cells,did not affect
same,NAPE levels,HEK293 cells,increase
"CN(CC1CC1)C(=O)c1cc(N2CCOCC2)nc(N(C)CCc2ccccc2)n1 [Compound 7, N-(Cyclopropylmethyl)-N-methyl-2-(methyl(phenethyl)amino)-6-morpholinopyrimidine-4-carboxamide]",inhibitory activity in words,human NAPE-PLD,complete loss of potency
Oc1c(Cl)cc(Cl)c(Cl)c1Cc1c(O)c(Cl)cc(Cl)c1Cl [hexachlorophene],neurotoxicity,[1],neurotoxic effects
"O=C(NCC1CC1)c1cc(N2CCOCC2)nc(N2CCCC2Cc2ccccc2)n1 (racemic) [Compound 63, (±)-2-(2-Benzylpyrrolidin-1-yl)-N-(cyclopropylmethyl)-6-morpholinopyrimidine-4-carboxamide]",fold increase in potency/activity,human NAPE-PLD,2 fold
"CN(CCc1ccccc1)c1nc(C(=O)NCC2CC2)nc(N2CCOCC2)n1 [Compound 6, N-(Cyclopropylmethyl)-4-(methyl(phenethyl)amino)-6-morpholino-1,3,5-triazine-2-carboxamide]",inhibitory activity in words,human NAPE-PLD,completely inactive
"CC(C)CNC(=O)c1cc(N2CCOCC2)nc(N(C)CCc2ccccc2)n1 [Compound 15, N-Isobutyl-2-(methyl(phenethyl)amino)-6-morpholinopyrimidine-4-carboxamide]",fold drop in potency,human NAPE-PLD,10 fold
"O=C(NCC1CC1)c1cc(N2CC[C@H](O)C2)nc(N2CCC[C@@H](c3ccccc3)C2)n1 [Compound 1, N-(Cyclopropylmethyl)-6-((S)-3-hydroxypyrrolidin-1-yl)-2-((S)-3-phenylpiperidin-1-yl)pyrimidine-4-carboxamide]",NAE levels including anandamide,Neuro-2a cells,reduced
same,anandamide levels in mouse brain,"[2]; 30 mg/kg, intraperitoneal injection",decreased
same,NAE levels including anandamide,[2]; brains of freely moving mice,reduced
same,turnover of PED6,"human NAPE-PLD; at a dose of 10 μM, full efficacy",completely blocked
same,fold increase in potency/activity,human NAPE-PLD,10 fold
"CN(C)c1cc(C(=O)NCC2CC2)nc(N(C)CCc2ccccc2)n1 [Compound 81, N-(Cyclopropylmethyl)-6-(dimethylamino)-2-(methyl(phenethyl)amino)pyrimidine-4-carboxamide]",fold increase in potency/activity,human NAPE-PLD,2 fold
"O=C(NCC1CC1)c1cc(N2CCOCC2)ncn1 [Compound 32, N-(Cyclopropylmethyl)-6-morpholinopyrimidine-4-carboxamide]",inhibitory activity in words,human NAPE-PLD,inactive
"O=C(NCC1CC1)c1cc(N2CCOCC2)nc(Cl)n1 [Compound 31, 2-Chloro-N-(cyclopropylmethyl)-6-morpholinopyrimidine-4-carboxamide]",inhibitory activity in words,human NAPE-PLD,inactive
"O=C(NCC1CC1)c1cc(N2CCOCC2)nc(N2CCCC(c3ccccc3)C2)n1 (racemic) [Compound 62, (±)-N-(Cyclopropylmethyl)-6-morpholino-2-(3-phenylpiperidin-1-yl)pyrimidine-4-carboxamide]",fold increase in potency/activity,human NAPE-PLD,2 fold
"CN(CCc1ccccc1)c1cc(N2CCOCC2)cc(C(=O)NCC2CC2)n1 [Compound 3, N-(Cyclopropylmethyl)-6-(methyl(phenethyl)amino)-4-morpholino-picolinamide]",fold drop in potency,human NAPE-PLD,10 fold
"CC(C)N(CCc1ccccc1)c1nc(C(=O)NCC2CC2)cc(N2CCOCC2)n1 [Compound 55, N-(Cyclopropylmethyl)-2-(isopropyl(phenethyl)amino)-6-morpholinopyrimidine-4-carboxamide]",fold increase in potency/activity,human NAPE-PLD,2 fold
"CN(CCc1ccccc1)c1nc(C(=O)NCC2CC2)cc(N2CCCC2)n1 [Compound 87, N-(Cyclopropylmethyl)-2-(methyl(phenethyl)amino)-6-(pyrrolidin-1-yl)pyrimidine-4-carboxamide]",fold increase in potency/activity,human NAPE-PLD,~4 fold
"C[C@H](CCC(=O)O)[C@H]1CC[C@H]2[C@@H]3CC[C@@H]4C[C@H](O)CC[C@]4(C)[C@H]3CC[C@]12C [lithocholic acid, reference compound]",inhibitory activity in words,human NAPE-PLD,not active
